Measurements as given in ChEMBL document CHEMBL4665624, “Synthesis of 5-(4-(1H-phenanthro[9,10-d]imidazol-2-yl)benzylidene)thiazolidine-2,4-dione as promising DNA and serum albumin-binding agents and evaluation of antitumor activity” (Eur J Med Chem, 2019).
The source made the active and inactive calls. The rule behind the calls is not given here.

Key:
Malme-3M = assay: Antitumor activity against human MALME-3M cells assessed as cell growth inhibition at 10 uM incubated for 48 hrs by sulforhodamine B assay; format: functional; conditions: read-out: GI
Albumin [1] = molecular target: T1, Albumin (Bos taurus, UniProt P02769); assay: Binding affinity to bovine serum albumin assessed as binding constant at 308K by fluorescence emission spectrum analysis; format: ADME, cell-free; conditions: cattle
A549 = assay: Cytotoxicity against human A549/ATCC assessed as reduction in cell viability at 10 uM after 48 hrs by MTT assay; format: functional
786-0 = assay: Antitumor activity against human 786-0 cells assessed as cell growth inhibition at 10 uM incubated for 48 hrs by sulforhodamine B assay; format: functional; conditions: read-out: GI
K562 = assay: Antitumor activity against human K562 cells assessed as cell growth inhibition at 10 uM incubated for 48 hrs by sulforhodamine B assay; format: functional; conditions: read-out: GI
DNA [2] = assay: Binding affinity to human DNA in blood assessed as binding constant by fluorescence emission spectrum analysis; format: tissue-based
Albumin [3] = molecular target: T2, Albumin (Homo sapiens, UniProt P02768); assay: Binding affinity to human serum albumin assessed as binding constant by UV-Vis absorption spectroscopy; format: ADME, cell-free
HCT-116 = assay: Antitumor activity against human HCT116 cells assessed as cell growth inhibition at 10 uM incubated for 48 hrs by sulforhodamine B assay; format: functional; conditions: read-out: GI
MDA-MB-468 = assay: Antitumor activity against human MDA-MB-468 cells assessed as cell growth inhibition at 10 uM incubated for 48 hrs by sulforhodamine B assay; format: functional; conditions: read-out: GI
A498 = assay: Antitumor activity against human A498 cells assessed as cell growth inhibition at 10 uM incubated for 48 hrs by sulforhodamine B assay; format: functional; conditions: read-out: GI
Albumin [4] = molecular target: T1, Albumin; assay: Binding affinity to bovine serum albumin assessed as formation of new absorption band at 400 nm at 0-10 uM by UV-vis absorption spectral titration analysis; format: ADME, cell-free; conditions: cattle
Albumin [5] = molecular target: T1, Albumin; assay: Binding affinity to bovine serum albumin assessed as spontaneous interaction by measuring change in gibbs free energy at 298K by thermodynamic based analysis; format: ADME, cell-free; conditions: cattle
OVCAR-8 = assay: Antitumor activity against human OVCAR-8 cells assessed as cell growth inhibition at 10 uM incubated for 48 hrs by sulforhodamine B assay; format: functional; conditions: read-out: GI
SF-295 = assay: Antitumor activity against human SF295 cells assessed as cell growth inhibition at 10 uM incubated for 48 hrs by sulforhodamine B assay; format: functional; conditions: read-out: GI
Calf thymus DNA [6] = assay: Binding affinity to calf thymus DNA assessed as Stern-Volmer quenching constant by ethidium bromide competitive displacement assay; format: nucleic-acid assay; conditions: Bos taurus
SK-MEL-28 = assay: Antitumor activity against human SK-MEL-28 cells assessed as cell growth inhibition at 10 uM incubated for 48 hrs by sulforhodamine B assay; format: functional; conditions: read-out: GI
Albumin [7] = molecular target: T1, Albumin; assay: Binding affinity to bovine serum albumin assessed as quenching constant at 308K by fluorescence emission spectrum analysis; format: ADME, cell-free; conditions: cattle
Albumin [8] = molecular target: T1, Albumin; assay: Binding affinity to bovine serum albumin assessed as Stern-Volmer quenching constant at 318K by fluorescence emission spectrum analysis; format: ADME, cell-free; conditions: cattle
NCI-H226 = assay: Antitumor activity against human NCI-H226 assessed as cell growth inhibition at 10 uM incubated for 48 hrs by sulforhodamine B assay; format: functional; conditions: read-out: GI
NCI-H460 = assay: Antitumor activity against human NCI-H460 assessed as cell growth inhibition at 10 uM incubated for 48 hrs by sulforhodamine B assay; format: functional; conditions: read-out: GI
M14 = assay: Antitumor activity against human M14 cells assessed as cell growth inhibition at 10 uM incubated for 48 hrs by sulforhodamine B assay; format: functional; conditions: read-out: GI
Albumin [9] = molecular target: T2, Albumin; assay: Binding affinity to human serum albumin assessed as quenching constant by fluorescence emission spectroscopy; format: ADME, cell-free
RPMI-8226 = assay: Antitumor activity against human RPMI8226 cells assessed as cell growth inhibition at 10 uM incubated for 48 hrs by sulforhodamine B assay; format: functional; conditions: read-out: GI
SW-620 = assay: Antitumor activity against human SW620 cells assessed as cell growth inhibition at 10 uM incubated for 48 hrs by sulforhodamine B assay; conditions: SW-620, 48 h, read-out: GI
NCI/ADR-RES = assay: Antitumor activity against human NCI/ADR-RES cells assessed as cell growth inhibition at 10 uM incubated for 48 hrs by sulforhodamine B assay; format: functional; conditions: read-out: GI
Calf thymus DNA [10] = assay: Binding affinity to calf thymus DNA assessed as quenching constant by fluorescence emission spectroscopic analysis; format: nucleic-acid assay; conditions: Bos taurus
Albumin [11] = molecular target: T1, Albumin; assay: Binding affinity to bovine serum albumin assessed as quenching constant at 318K by fluorescence emission spectrum analysis; format: ADME, cell-free; conditions: cattle
Albumin [12] = molecular target: T1, Albumin; assay: Binding affinity to bovine serum albumin assessed as Stern-Volmer quenching constant at 308K by fluorescence emission spectrum analysis; format: ADME, cell-free; conditions: cattle
Calf thymus DNA [13] = assay: Binding affinity to calf thymus DNA assessed as increase in fluorescence emission intensity at 468 nm at 20 uM by fluorescence emission spectroscopic analysis; format: nucleic-acid assay; conditions: Bos taurus
[14] = Ratio of Kb for human DNA in blood to Kb for calf thymus DNA
HCT-15 = assay: Antitumor activity against human HCT15 cells assessed as cell growth inhibition at 10 uM incubated for 48 hrs by sulforhodamine B assay; format: functional; conditions: read-out: GI
IGROV-1 = assay: Antitumor activity against human IGROV1 cells assessed as cell growth inhibition at 10 uM incubated for 48 hrs by sulforhodamine B assay; format: functional; conditions: read-out: GI
NCI-H23 = assay: Antitumor activity against human NCI-H23 cells assessed as cell growth inhibition at 10 uM incubated for 48 hrs by sulforhodamine B assay; format: functional; conditions: read-out: GI
Calf thymus DNA [15] = assay: Binding affinity to calf thymus DNA assessed as binding constant by fluorescence emission spectroscopic analysis; format: nucleic-acid assay; conditions: Bos taurus
COLO 205 = assay: Antitumor activity against human COLO205 cells assessed as cell growth inhibition at 10 uM incubated for 48 hrs by sulforhodamine B assay; format: functional; conditions: read-out: GI
CCRF-CEM = assay: Antitumor activity against human CCRF-CEM cells assessed as cell growth inhibition at 10 uM incubated for 48 hrs by sulforhodamine B assay; format: functional; conditions: read-out: GI
Albumin [16] = molecular target: T1, Albumin; assay: Binding affinity to bovine serum albumin assessed as Stern-Volmer quenching constant at 298K by fluorescence emission spectrum analysis; format: ADME, cell-free; conditions: cattle
DNA [17] = assay: Binding affinity to human DNA in blood assessed as DNA intercalation by measuring binding constant by UV-Vis spectral titration analysis; format: tissue-based
Albumin [18] = molecular target: T1, Albumin; assay: Binding affinity to bovine serum albumin assessed as spontaneous interaction by measuring change in gibbs free energy at 318K by thermodynamic based analysis; format: ADME, cell-free; conditions: cattle
Albumin [19] = molecular target: T1, Albumin; assay: Binding affinity to bovine serum albumin assessed as binding constant by UV-vis absorption spectral titration analysis based Benesi-Hildebrand equation analysis; format: ADME, cell-free; conditions: cattle
Calf thymus DNA [20] = assay: Binding affinity to calf thymus DNA assessed as hypochromic effect by measuring decrease in intensity of absorption band at 398 nm at 20 uM by UV-Vis absorption spectrophotometric method; conditions: Bos taurus
Albumin [21] = molecular target: T1, Albumin; assay: Binding affinity to bovine serum albumin assessed as decrease in fluorescence emission intensity at 350 nm at 0-12 uM by fluorescence emission spectrum analysis; format: ADME, cell-free; conditions: cattle, 0.35 µM
SR = assay: Antitumor activity against human SR cells assessed as cell growth inhibition at 10 uM incubated for 48 hrs by sulforhodamine B assay; format: functional; conditions: read-out: GI
Albumin [22] = molecular target: T1, Albumin; assay: Binding affinity to bovine serum albumin assessed as spontaneous interaction by measuring change in gibbs free energy at 308K by thermodynamic based analysis; format: ADME, cell-free; conditions: cattle
Calf thymus DNA [23] = assay: Binding affinity to calf thymus DNA assessed as bimolecular quenching constant by ethidium bromide competitive displacement assay; format: nucleic-acid assay; conditions: Bos taurus

T1 sequence (P02769 whole entry): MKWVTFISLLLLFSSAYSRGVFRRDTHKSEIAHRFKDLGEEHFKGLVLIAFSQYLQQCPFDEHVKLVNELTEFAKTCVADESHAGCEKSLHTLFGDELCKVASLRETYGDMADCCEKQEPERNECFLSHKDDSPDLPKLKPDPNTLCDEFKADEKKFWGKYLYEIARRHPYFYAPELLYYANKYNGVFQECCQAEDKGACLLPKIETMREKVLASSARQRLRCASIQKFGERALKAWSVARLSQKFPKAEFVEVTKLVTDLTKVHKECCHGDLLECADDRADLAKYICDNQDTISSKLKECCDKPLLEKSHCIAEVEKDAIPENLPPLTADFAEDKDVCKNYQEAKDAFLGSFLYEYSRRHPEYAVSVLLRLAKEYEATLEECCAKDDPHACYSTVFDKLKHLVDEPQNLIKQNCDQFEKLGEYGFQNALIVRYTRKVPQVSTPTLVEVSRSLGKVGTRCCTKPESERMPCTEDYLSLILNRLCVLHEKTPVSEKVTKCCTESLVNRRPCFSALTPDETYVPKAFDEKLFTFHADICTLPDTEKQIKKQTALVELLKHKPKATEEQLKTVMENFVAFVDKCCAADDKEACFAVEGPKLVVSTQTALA
T2 sequence (P02768 whole entry): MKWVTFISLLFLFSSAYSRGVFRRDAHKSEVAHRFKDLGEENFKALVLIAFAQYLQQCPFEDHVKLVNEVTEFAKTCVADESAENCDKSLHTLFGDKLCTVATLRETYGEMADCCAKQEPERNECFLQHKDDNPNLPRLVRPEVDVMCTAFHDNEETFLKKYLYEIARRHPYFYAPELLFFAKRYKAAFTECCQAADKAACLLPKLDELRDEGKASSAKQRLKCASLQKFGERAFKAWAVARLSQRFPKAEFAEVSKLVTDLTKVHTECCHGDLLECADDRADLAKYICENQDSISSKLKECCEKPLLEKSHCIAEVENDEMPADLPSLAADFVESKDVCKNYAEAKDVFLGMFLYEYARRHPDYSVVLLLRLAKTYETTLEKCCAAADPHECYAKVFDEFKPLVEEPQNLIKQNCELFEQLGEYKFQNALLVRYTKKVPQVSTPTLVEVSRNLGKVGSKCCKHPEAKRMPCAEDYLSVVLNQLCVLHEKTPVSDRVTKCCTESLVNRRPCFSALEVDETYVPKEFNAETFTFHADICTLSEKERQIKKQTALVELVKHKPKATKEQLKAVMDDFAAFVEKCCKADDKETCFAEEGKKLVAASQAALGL

## O=C1NC(=O)/C(=C/c2ccc(-c3nc4c5ccccc5c5ccccc5c4[nH]3)cc2)S1
Malme-3M
  inhibition of growth at 10 µM: 14.8%
Albumin [1]
  Kb: 3.56 10^6/M
A549
  Activity: 78%
786-0
  inhibition of growth at 10 µM: 48%
K562
  inhibition of growth at 10 µM: 68.1%
DNA [2]
  Kb: 7.09 10^5/M
Albumin [3]
  Kb: 9.35 10^4/M
HCT-116
  inhibition of growth at 10 µM: 65.5%
MDA-MB-468
  inhibition of growth at 10 µM: 51.7%
A498
  inhibition of growth at 10 µM: 93%
Albumin [4]
  Activity: Active
Albumin [5]
  deltaG: -38 kJ/mol
OVCAR-8
  inhibition of growth at 10 µM: 21.7%
SF-295
  inhibition of growth at 10 µM: 16.3%
Calf thymus DNA [6]
  KSV: 6.53 10^4/M
SK-MEL-28
  inhibition of growth at 10 µM: 19.1%
Albumin [7]
  Kq: 8.15 10^13/M/sec
Albumin [8]
  KSV: 3.51 10^5/M
NCI-H226
  inhibition of growth at 10 µM: < 10%
NCI-H460
  inhibition of growth at 10 µM: 19.7%
M14
  inhibition of growth at 10 µM: 47.9%
Albumin [9]
  Kq: 3.01 10^14/M/s
RPMI-8226
  inhibition of growth at 10 µM: 66.1%
SW-620
  inhibition of growth at 10 µM: 22.8%
NCI/ADR-RES
  inhibition of growth at 10 µM: < 10%
Calf thymus DNA [10]
  Kq: 1.88 10^11/M/s
Albumin [11]
  Kq: 3.51 10^13/M/sec
Albumin [12]
  KSV: 8.15 10^5/M
Calf thymus DNA [13]
  Activity: Active
[14]
  Ratio: 2
HCT-15
  inhibition of growth at 10 µM: 50%
IGROV-1
  inhibition of growth at 10 µM: < 10%
NCI-H23
  inhibition of growth at 10 µM: 29%
Calf thymus DNA [15]
  Kb: 1.95 10^5/M
COLO 205
  inhibition of growth at 10 µM: < 10%
CCRF-CEM
  inhibition of growth at 10 µM: 65.2%
Albumin [16]
  KSV: 8.42 10^5/M
DNA [17]
  Kb: 5.24 10^4/M
Albumin [18]
  deltaG: -39.4 kJ/mol
Albumin [19]
  Kb: 6.57 10^4/M
Calf thymus DNA [20]
  Activity: Active
Albumin [21]
  Activity: Active
SR
  inhibition of growth at 10 µM: 79.2%
Albumin [22]
  deltaG: -38.5 kJ/mol
Calf thymus DNA [23]
  Kq: 6.53 10^12/M/s
